The record followed here is patent US6989375B2, “Enhanced expression of transgenes” (priority 1996, dated 2006).

The subject of the test is H1299 cells. Nature of the test: β-gal expression by X-gal staining after Ad/CMV/β-gal infection of agent-treated cells. In kind it is cell-based, human. On the procedure:
Gene Delivery Protocol: In vitro gene delivery was performed by incubating cells in six-well plates (Falcon Plastics, Lincoln Park, N.J.) for two hours with Adv/CMV/β-gal in appropriate medium supplemented with 2% FCS. The multiplicity of infection (MOI: number of viral particles per target cell) was based on cell counts of untreated wells. Fresh, complete medium with the appropriate concentration of FCS was then added to the wells at the end of the infection period and cells were then incubated for 20 hours at 37° C., 5% CO2. After washing the cells with ice cold PBS, the cells were fixed with ice-cold 1.25% glutaraldehyde and stained with X-gal (5-bromo-4-chloro-3-indolyl-β-d-galactoside; Gibco BRL) as previously described (MacGregor et al., 1987). The transduction efficiency by Adv/CMV/β-gal was determined by the percentage of positive stained cells (blue) for β-galactosidase activity (1000 cells counted per well).
Time Course and Dose Response: To determine the time course of enhancement, H1299 and H460 cells were seeded in 6-well plates (2×10^5 cells/2 mls/well). After an overnight incubation period (37° C., 5% CO2), the initial medium was replaced with freshly prepared media (2 ml) containing 0.062 μg/ml CDDP (Sigma Chemicals, St. Louis, Mo.) (CDDP was prepared fresh by dissolving in distilled water) and the cells were then incubated for 24 hours at 37° C., with 5% CO2. CDDP-treated cells were then washed twice with PBS and subsequently infected with Ad/CMV/β-gal (MOI=1 for H1299 and MOI=5 for H460) on days 0, 1, 2, 3, 4, 5 or 6 following CDDP removal, to determine the time point at which maximal enhancement of expression was occurring. To establish the dose of CDDP needed to produce maximum enhancement, the cells were treated with different concentrations of CDDP (serial, 1:4 dilutions, ranging from 4 μg/ml to 0.0002 μg/ml, 5 ml per 60 mm dish) for 24 hours and subsequently incubated with Ad/CMV/β-gal 48 hours after removal of CDDP. To study if exposure of malignant cells to different classes of antineoplastic agents would lead to a similar elevation of gene expression, H1299 cells were treated with vincristine (Eli Lilly and Co, Indianapolis, Ind.), methotrexate (Lederle Pharmaceuticals, Pearl River, N.Y.), 5-fluorouracil (SoloPak Laboratories, Elk Grove Village, Ill.), epotoside (Bristol Laboratories, Princeton, N.J.) and transplatin (the isomer of CDDP that has no anticancer activity, Sigma Chemical, St. Louis, Mo.) in the similar fashion as CDDP treatment and then infected with Ad/CMV/β-gal 48 hours after removal of drug-containing media. H1299 cells were treated with 2, 4, 8, or 16 Grey (Gy) of ionizing irradiation and then similarly infected 72 hours after irradiation. Untreated cells that were similarly infected, served as controls.

For the molecule `N.N.[Cl][Pt][Cl]` [CDDP, cis-dichlorodimminocisplatin], the “CDDP concentration at which maximal enhancement of β-gal gene expression occurred” value (24 h exposure, infected 48 hours after CDDP removal) came to 0.062 µg/mL. Besides, the “Time of gene transfer after drug treatment for maximal enhancement” value (CDDP 0.062 μg/ml) is listed as “about 48 hours”. Besides, the “Enhancement of β-gal gene expression” value (CDDP at 0.0039 and 1 μg/ml, infected 48 hours after CDDP removal) was “also an enhancement”. The “Enhancement of β-gal expression (FIG. 3)” value (drugs at 0.062 μg/ml or irradiated with 8 Greys, stained 24 hrs after infection) is listed as “Enhancement of β-gal expression was observed”. Moreover, the “Magnitude of maximal enhancement of transgene expression (FIG. 4B)” value (gene transfer 48 hours after exposure to 0.062 μg/ml of CDDP) stood at 2.7 fold.
